Reference: patent US6329497A, “Sandramycin analogs” (The Scripps Research Institute, priority 1999, dated 2001)

Tests used:
[1] = test system: five cell lines; assay: In vitro cytotoxic activity of key substructure analogs, five cell lines; type: cell-based; details: five cell lines
[2] = test system: L1210 cell line; assay: In vitro cytotoxic activity, L1210; type: cell-based
[3] = test system: calf thymus DNA and 5'-d(GCATGC)2; assay: DNA binding affinity trends over calf thymus DNA and 5'-d(GCATGC)2 (fluorescence quenching)
Procedure: Apparent absolute DNA binding constants for 1-22 and related agents including luzopeptin A were obtained by measurement of the fluorescence quenching upon titration addition of calf thymus DNA or the deoxyoligonucleotides 5'-d(GCXXGC)2 where XX=AT, TA, GC, and CG. For each agent, the characteristic fluorescence excitation and emission spectra were recorded in 10 mM Tris-HCl, 75 mM NaCl (pH 7.4) buffer, FIG. 6. For the DNA binding assays which quantitate the fluorescence quenching, excitation outside the absorbance range of DNA was employed and the most intense fluorescence emission at a longer wavelength monitored. For assay of the DNA-induced fluorescence quenching of the agents, a 2 mL buffer solution of Tris-HCl (pH 7.4) and 75 mM NaCl was employed. For titration, small aliquots of DNA were added to solutions of the agents in Tris-HCl buffer (pH 7.4).
Despite these precautions, the fluorescence for a number of the analog solutions decreased for several of analogs (11, 14, 17, 21 and 22) and the quality of the binding constants for these should be viewed with caution. […] The titrations were carried out with 15 min time intervals between DNA additions to allow binding equilibration. […] The titration fluorescence quenching was analyzed by Scatchard analysis (Scatchard, G. Ann. N. Y. Acad. Sci. 1949, 51, 660) with the following equation: rb /c=Kb n-Kb rb where rb is the number of agent molecules bound per DNA base-pair, c is the free drug concentration, Kb is the apparent association constant, and n is the number of agent binding sites per base-pair.
A pronounced downward curvature in an infinite lattice such as calf thymus DNA is recognized to arise in part from neighbor exclusion where the binding of an agent excludes the subsequent binding at nearby sites. This exclusion manifests itself in the plot by a reduction in the apparent binding constant as the DNA lattice approaches saturation and the probability of finding a free site is diminished. In the calf thymus DNA studies, the binding also entails multiple classes of independent binding sites or modes. For simplicity, a linear fit of the high affinity binding sites was used to determine the binding constant attributable to bis-intercalation. For the deoxyoligonucleotides, the curvature can be more simply attributed to multiple classes of independent binding sites or binding modes. There are a number of mathematical methods to deconvolute the curved plot into such individual binding events. In the deoxyoligonucleotide studies, a non-linear fit described by Feldman was also used to deconvolute the curves. The model assumes one ligand with two binding types or sites. Since the number of binding sites is limited, we have interpreted this to indicate a high affinity bis-intercalation and a lower affinity binding potentially involving mono-intercalation. The formula was fit using the JMP^22 statistical fitting program using an initial approximation of the two n values and fitting for K1 and K2.
After 5 min of stirring, an initial fluorescence reading was taken with minimum exposure to the excitation beam. […] The excitation and emission wavelengths used for each analog varied and can be found in FIG. 6. The results of the titration were analyzed by Scatchard analysis. The linear portion of the Scatchard plot was used to determine the high affinity binding constants. In the case of the deoxyoligonucleotide study, a non-linear fit of the curve as described in the text was also used to determine the high affinity binding constant (Feldman, H. A. Anal. Biochem. 1972, 48, 317).

[4] = molecular target: HIV-1 reverse transcriptase (Human immunodeficiency virus type 1 group M subtype B, UniProt P04585); assay: Inhibition of HIV-1 reverse transcriptase; type: biochemical
Procedure: The assay was performed according to an available procedure (Goldman, M. E.; Salituro, G. S.; Bowen, J. A.; Williamson, J. M.; Zink, D. L.; Schleif, W. A.; Emini, E. A. Mol. Pharmacol. 1990, 38, 20) with slight modification. A 45 L solution of reaction buffer containing 55 mM Tris·HCl, pH 8.2, 80 mM potassium chloride, 12 mM MgCl2, 1 mM DTT, 50 M EGTA, 2.5 g/mL rA·dT, 0.5 Ci of [^3 H]TTP, 10 M TTP, 1 mg/mL BSA, and 0.01% Triton X-100 was added to a well in a filter cluster plate (Millipore MAHV N45). The reverse transcription reaction was initiated upon addition of the reverse transcriptase (1 unit; 1 unit=10 pmol of [^3 H]TMP incorporated/60 min at 37° C.). The plate was incubated at 37° C. for 90 min. The plate was then placed on ice and 200 µL of 13% trichloroacetic acid and 10 mM sodium pyrophosphate was added to each well. The plate was chilled for 2 h and the liquid vacuumed out through the filter using a Millipore manifold (Millipore MAVM 09601). The precipitate was washed with 1 M and 10 mM sodium pyrophosphate twice. The filter was punched out and placed in a scintillation vial. 4 mL of cocktail was added. Radioactivity was determined by liquid scintillation counting.
The effects of sandramycin and its analogs on HIV-1 reverse transcriptase were determined by incubating the agents and the rA·dT containing buffer at 25° C. for 30 min prior to addition of the reverse transcriptase. Reactions containing no agents were used as controls, and those lacking the transcriptase were used as blanks.

Sandramycin Bis-O-benzyl Ether [compound 2]
fold less potent than 1 [1]: 20-1000 | cytotoxic potency, fold less potent than 1 [2]: 1000

COc1ccc2nc(C(=O)NC3COC(=O)C(C(C)C)N(C)C(=O)CN(C)C(=O)CNC(=O)C4CCCCN4C(=O)C(NC(=O)c4nc5ccc(OC)cc5cc4O)COC(=O)C(C(C)C)N(C)C(=O)CN(C)C(=O)CNC(=O)C4CCCCN4C3=O)c(O)cc2c1 [compound 11, (N-(3-Hydroxy-6-Methoxy-quinolinyl-3-carbonyl)-D-Ser-Pip-Gly-Sar-NMe-Val)2 (Serine Hydroxyl) Dilactone]
cytotoxic potency, fold less potent than 1 [2]: 2 | DNA binding affinity, in words [3]: slightly less effective

(N-(3-Benzyl-oxypyridyl-2-carbonyl)-D-Ser-Pip-Gly-Sar-NMe-Val)2 (Serine Hydroxyl) Dilactons [compound 9]
cytotoxic potency, fold less potent than 2 [2]: 4000 | cytotoxic potency, fold less potent than 8 [2]: 1000

Cc1ccc2nc(C(=O)N[C@@H]3COC(=O)[C@H](C(C)C)N(C)C(=O)CN(C)C(=O)CNC(=O)[C@@H]4CCCCN4C(=O)[C@H](NC(=O)c4nc5ccc(C)cc5cc4O)COC(=O)[C@H](C(C)C)N(C)C(=O)CN(C)C(=O)CNC(=O)[C@@H]4CCCCN4C3=O)c(O)cc2c1 [compound 14, (N-(-3-Hydroxy-6-methylquinolinyl-2-carbonyl)-D-Ser-Pip-Gly-Sar-NMe-Val). sub.2 (Serine Hydroxyl) Dilactone]
cytotoxic potency, fold less potent than 1 [2]: 1 | HIV-1 reverse transcriptase inhibition, in words [4]: Comparable but slightly less potent inhibition | DNA binding affinity, in words [3]: consistently slightly less effective

COc1cc2ccccc2nc1C(=O)N[C@@H]1COC(=O)[C@H](C(C)C)N(C)C(=O)CN(C)C(=O)CNC(=O)[C@@H]2CCCCN2C(=O)[C@H](NC(=O)c2nc3ccccc3cc2OC)COC(=O)[C@H](C(C)C)N(C)C(=O)CN(C)C(=O)CNC(=O)[C@@H]2CCCCN2C1=O [compound 3, (N-(3-Methoxy-quinolinyl-2-carbonyl)-D-ser-Pip-Gly-Sar-NMe-Val)2 (Serine Hydroxyl) Dilactone]
HIV-1 reverse transcriptase inhibition, in words [4]: roughly maintain the HIV-1 reverse transcriptase inhibitory potency of 1 | reduction in inhibitory potency on O-alkylation of the C3 phenol [4]: approx. 10

CC(C)C1C(=O)OCC(NC(=O)c2nc3ccccc3nc2OCc2ccccc2)C(=O)N2CCCCC2C(=O)NCC(=O)N(C)CC(=O)N(C)C(C(C)C)C(=O)OCC(NC(=O)c2nc3ccccc3nc2OCc2ccccc2)C(=O)N2CCCCC2C(=O)NCC(=O)N(C)CC(=O)N1C [compound 20, (N-(3-Benzyl-oxyquinoxalyl-2-carbonyl)-D-Ser-Pip-Gly-Sar-NMe-Val)2 (Serine Hydroxyl) Dilactone]
cytotoxic potency, fold less potent than 19 [2]: 7

CC(C)[C@H]1C(=O)OC[C@@H](NC(=O)c2ccccn2)C(=O)N2CCCC[C@H]2C(=O)NCC(=O)N(C)CC(=O)N(C)[C@@H](C(C)C)C(=O)OC[C@@H](NC(=O)c2ccccn2)C(=O)N2CCCC[C@H]2C(=O)NCC(=O)N(C)CC(=O)N1C [compound 10, (N-(Pyridyl-2-carbonyl)-D-Ser-Pip-Gly-Sar-NMe-Val)2 (Serine Hydroxyl) Dilactone]
cytotoxic potency, fold less potent than 4 [2]: 4×10^5 | cytotoxic potency, fold less potent than 8 [2]: 1000 | HIV-1 reverse transcriptase inhibition, in words [4]: much less effective

COc1ccc2nc(C(=O)NC3COC(=O)C(C(C)C)N(C)C(=O)CN(C)C(=O)CNC(=O)C4CCCCN4C(=O)C(NC(=O)c4nc5ccc(OC)cc5cc4OCc4ccccc4)COC(=O)C(C(C)C)N(C)C(=O)CN(C)C(=O)CNC(=O)C4CCCCN4C3=O)c(OCc3ccccc3)cc2c1 [compound 12, (N-(3-Benzyloxy-6-methoxy-quinolinyl-2-carbonyl)-D-Ser-Pip-Gly-Sar-NMe-Val)2 (Serine Hydroxyl) Dilactone]
cytotoxic potency, fold less potent than 2 [2]: 0.8 | cytotoxic potency, fold less potent than 11 [2]: 400

(N-(3-Benzyloxy-7-chloroquinolinyl-2-carbonyl)-D-Ser-Pip-Gly-Sar-NMe-Val)2 (Serine Hydroxyl) Dilactone [compound 17]
reduction in inhibitory potency on O-alkylation of the C3 phenol [4]: > 500 | reduction of the binding affinity versus 16 ([3]; O-benzylation of chromophore phenol): 2.4 to 2.7 kcal/mol

CC(C)[C@H]1C(=O)OC[C@@H](NS(=O)(=O)CC[Si](C)(C)C)C(=O)N2CCCC[C@H]2C(=O)NCC(=O)N(C)CC(=O)N(C)[C@@H](C(C)C)C(=O)OC[C@@H](NC(=O)c2nc3ccccc3cc2O)C(=O)N2CCCC[C@H]2C(=O)NCC(=O)N(C)CC(=O)N1C [compound 24, N^1 -SES,N^6 -(3-hydroxylquinoline-2-carbonyl) (D-Ser-Pip-Gly-Sar-NMe-Val)2 (Serine Hydroxyl) Dilactone]
fold less potent than 1 [1]: 5000-10000

CC(C)C1C(=O)OCC(NC(=O)c2cc3ccccc3cc2OCc2ccccc2)C(=O)N2CCCCC2C(=O)NCC(=O)N(C)CC(=O)N(C)C(C(C)C)C(=O)OCC(NC(=O)c2cc3ccccc3cc2OCc2ccccc2)C(=O)N2CCCCC2C(=O)NCC(=O)N(C)CC(=O)N1C [compound 6, (N-(3-Benzyl-oxynaphthyl-2-carbonyl)-D-Ser-Pip-Gly-Sar-NMe-Val)2 (Serine Hydroxyl) Dilactone]
cytotoxic potency, fold less potent than 2 [2]: > 5000 | cytotoxic potency, fold less potent than 5 [2]: > 500

COc1ccc2nc(C(=O)N[C@@H]3COC(=O)[C@H](C(C)C)N(C)C(=O)CN(C)C(=O)CNC(=O)[C@@H]4CCCCN4C(=O)[C@H](NC(=O)c4ccc5cc(OC)ccc5n4)COC(=O)[C@H](C(C)C)N(C)C(=O)CN(C)C(=O)CNC(=O)[C@@H]4CCCCN4C3=O)ccc2c1 [compound 13, (N-(6-Methoxyquinolinyl-2-carbonyl)-D-Ser-Pip-Gly-Sar-NMe-Val)2 (Serine Hydroxyl) Dilactone]
cytotoxic potency, fold less potent than 4 [2]: 2 | cytotoxic potency, fold less potent than 11 [2]: 10 | HIV-1 reverse transcriptase inhibition, in words [4]: Comparable but slightly less potent inhibition

CC(C)[C@H]1C(=O)OC[C@@H](NC(=O)c2nc3cc(Cl)ccc3cc2O)C(=O)N2CCCC[C@H]2C(=O)NCC(=O)N(C)CC(=O)N(C)[C@@H](C(C)C)C(=O)OC[C@@H](NC(=O)c2nc3cc(Cl)ccc3cc2O)C(=O)N2CCCC[C@H]2C(=O)NCC(=O)N(C)CC(=O)N1C [compound 16, (N-(7-Chloro-3-hydroxyquinolinyl-2-carbonyl)-D-Ser-Pip-Gly-Sar-NMe-Val). sub.2 (Serine Hydroxyl) Dilactone]
cytotoxic potency, fold less potent than 1 [2]: 0.5 | HIV-1 reverse transcriptase inhibition, in words [4]: Comparable but slightly less potent inhibition | DNA binding affinity, in words [3]: nearly indistinguishable from 1
